Measurements from patent US9056067B2, “Pharmaceutical composition for enhancing immunity, and extract of Poria” (Sinphar Pharmaceutical Co., Ltd., priority 2003, dated 2015).

Key:
spleen cells = assay: Spleen cell growth (MTT assay) after oral administration; type: in vivo, mice
Procedure: BALB/c male mice, 6-8 weeks old, were used throughout the experiment. The animals were purchased from National Laboratory Animal Center, Taipei, Taiwan. The mice were housed in the Individual Ventilation Cage System, which provided an environment of Specific Pyrogen-Free. The facilities had 12-h day/night rhythm, 24-26° C. and 30-70% humidity in air. Mice were fed autoclaved water and rodent chow, and the bedding was sterilized by autoclave also. The feedstock purchased from animal center of National Taiwan University composed of crude proteins (>23.0%), crude fat (>4.5%), crude fiber (<6.0%), ash (<8.0%), added minerals (<3.0%) and water (<12%). After transport, the mice were allowed to rest for two weeks before the experiments were started.
(§1) […] […] The control group was the mice feeding with an equal volume of saline (0.85% of NaCl). Mice were sacrificed at day five, and both the serum and spleen cells were collected. The sera were subsequently used to measure the concentration of IgG, IgM and IgA. The spleen cells were plated onto a 100 mm diameter culture plate and incubated at 37° C. for three hours. The non-adherent cells containing T-lymphocytes, B-lymphocytes and NK cells were collected and properly diluted as described in each assay.
The dry powder of PCM, PCM-K1, K-2, K-3 and K4 were suspended in sterile water, followed by sonication to break down the large particle. The suspension of fine particles was used to feed the animals.
(§2) The mouse to be sacrificed was cervical dislocated and sterilized with 70% ethanol. The cardiac punctuation was performed first to withdraw the blood. After the haemagglutination, the blood sample was subjected to centrifugation and the serum was collect. For isolation of spleen cells, the peritoneum was opened to remove the spleen. The fresh spleen was transferred to a culture plate containing 10 ml of RPMI-1640 culture medium. The spleen was then ground over a fine mesh to release the spleen cells. The spleen cells suspending in the medium were then removed and transferred to a 50-ml conical centrifuge tube. The tube was subjected to centrifugation at 1300 rpm for 10 min. The supernatant was discarded and the pellet was re-suspended in 1 ml of cold RBC lysing buffer containing EDTA-NH4Cl. The cells were incubated at room temperature for 10 min, followed by washing the cells three times with culture medium by centrifugation. The spleen cells were plated onto a 100 mm diameter culture plate and incubated at 37° C. for three hours. The non-adherent cells containing T-lymphocytes, B-lymphocytes and NK cells were collected and properly diluted as described in each assay.
MTT assay is the method routinely used for estimating the viable cell number and viability of the cultured cells. The basic principle is that the only mitochondria in a viable cells contain biologically activated oxido-reductive enzymes. The enzymes interact with MTT reagents to convert the chemical into a relatively insoluble blue crystal. The crystal is then solubilized in an acidic isopropanol and the absorbence at 570 nm in each well was read using an ELISA reader (EL311, BioTek, VT). Briefly, the spleen cells suspended in a medium containing RPMI 1640 supplemented with 10% fetal bovine serum (FBS), 2 mM L-glutamine, antibiotics and 1 μg/ml concanavalin A (Con A) were cultured in the 96-well flat-bottom plate (5×10^5 cells/100 μl/well) for 5 days. MTT assay was performed at day 3, 4 and 5. MTT tetrazolium (3-(4-5-dimethylthiazol-2-yl)-2,5-diphenyltertrazolium bromide) (5 mg/ml in phosphate-buffered saline) (Sigma Chemical, St. Louis, Mo.) was added to the spleen cells (20 μl MTT per 100 μl cells), and plates were incubated at 37° C. for 4 h. Acid-isopropanol (100 μl of 0.04 NHCL in isopropanol) was added to all wells and mixed completely to dissolve the dark blue crystals. After 20 minutes at room temperature to ensure that all crystals were dissolved, the plates were read on an EIA reader at 570 nm.

IgA = assay: Serum level of IgA (ELISA); type: in vivo, mice; details: for Effect on serum concentrations of IgA (in words): oral
Procedure: as §1, §2
An ELISA was performed in our study to measure the immunoglobulin concentration. Briefly, the spleen cells (5×10^5 cells/ml) were cultured in a medium containing RPMI 1640 supplemented with 10% fetal bovine serum (FBS), 2 mM L-glutamine, antibiotics and 5 μg/ml lipopolysaccharide (LPS; 1 μg/10^5 cells) for 5 days. LPS is a polyclonal activator of B lymphocyte. Culture spleen cell supernatants were collected at day 3, 4 and 5. IgA, IgG and IgM concentrations were measured using a sandwich ELISA technique.
The procedure for IgA assay was similar to that for IgG assay, except that the samples were 1/10^4 diluted and standard IgA ranged from 1 μg/ml to 0.0156 μg/ml were added (100 μl/well). The secondary antibody for the assay was HRP-conjugated goat anti-mouse IgA (1:1000 diluted; Zymed Laboratory, CA).

[1] = oral 10 mg/kg/day for four days
[2] = oral 20 mg/kg/day for four days

| SMILES | Spleen cell growth, absorbance at 570 nm (MTT assay), incubation day 3 (spleen cells; oral 5 mg/kg/day for four days) | Spleen cell growth, absorbance at 570 nm (MTT assay), incubation day 4 (spleen cells; oral 5 mg/kg/day for four days) | Spleen cell growth, absorbance at 570 nm (MTT assay), incubation day 5 (spleen cells; oral 5 mg/kg/day for four days) | Spleen cell growth, absorbance at 570 nm (MTT assay), incubation day 3 (spleen cells; [1]) | Spleen cell growth, absorbance at 570 nm (MTT assay), incubation day 4 (spleen cells; [1]) | Spleen cell growth, absorbance at 570 nm (MTT assay), incubation day 5 (spleen cells; [1]) | Spleen cell growth, absorbance at 570 nm (MTT assay), incubation day 3 (spleen cells; [2]) | Spleen cell growth, absorbance at 570 nm (MTT assay), incubation day 4 (spleen cells; [2]) | Spleen cell growth, absorbance at 570 nm (MTT assay), incubation day 5 (spleen cells; [2]) | Effect on serum concentrations of IgA (in words) (IgA) | Serum immunoglobulin concentration IgA (IgA; oral 5 mg/kg/day for four days) [mg/mL] | Serum immunoglobulin concentration IgA (IgA; [1]) [mg/mL] | Serum immunoglobulin concentration IgA (IgA; [2]) [mg/mL] |
| --- | --- | --- | --- | --- | --- | --- | --- | --- | --- | --- | --- | --- | --- |
| C=C(CC[C@@H](C(=O)O)[C@H]1[C@H](O)C[C@@]2(C)C3=CC[C@H]4C(C)(C)C(=O)CC[C@]4(C)C3=CC[C@]12C)C(C)C [K3] | 1.154 ± 0.172 | 0.841 ± 0.160 | 0.864 ± 0.194 | 1.020 ± 0.090 | 0.900 ± 0.193 | 0.957 ± 0.200 | 1.103 ± 0.081 | 1.068 ± 0.132 | 0.943 ± 0.159 | no effect | 3.65 ± 0.26 | 3.81 ± 0.46 | 3.55 ± 0.37 |
| C=C(CCC(C(=O)O)C1C(O)CC2(C)C3=CCC4C(C)(CCC(O)C4(C)C)C3=CCC12C)C(C)C (centres unmarked) [K4] | 0.949 ± 0.101 | 0.981 ± 0.087 | 0.862 ± 0.085 | 1.198 ± 0.101 | 1.273 ± 0.147 | 1.177 ± 0.078 | 1.233 ± 0.040 | 1.263 ± 0.041 | 1.061 ± 0.124 | no effect | 3.33 ± 0.13 | 3.39 ± 0.25 | 3.54 ± 0.12 |
